This is an account of results in patent publication US20070098800A1, “Therapeutic compositions” (priority 2002, published 2007).

The subject of data set [1] is experimental model of arthritis created by injecting ovalbumin into the knees of rabbits. The experiment in a line: Ovalbumin-induced arthritis (chronic synovitis) in rabbit knees: joint swelling, ovalbumin antibody titers, histological joint damage. Type of data set: in vivo. The following applies: compared to vehicle controls, during the 3-week period (Example 1). On the procedure:
(§1) At 3-day intervals over a 3-week period, joint swelling (circumference) is assessed, synovial fluid samples (25 μl) are collected for analysis of salicylate and betamethasone concentrations, and venous blood samples (0.5 ml) are collected for analysis of salicylate and betamethasone serum concentrations and ovalbumin antibody titers. At the end of 3 weeks the animals are sacrificed for histological assessment of joint damage.
(§2) At 3-day intervals over a 3-week period, joint swelling (circumference) was assessed, synovial fluid samples (25 μl) were collected for analysis of salicylate and lidocaine concentrations, and venous blood samples (0.5 ml) were collected for analysis of salicylate and lidocaine serum concentrations and ovalbumin antibody titers. At the end of 3 weeks the animals were sacrificed for histological assessment of joint damage.
At 3-day intervals over a 3-week period, joint swelling (circumference) is assessed, synovial fluid samples (25 μl) are collected for analysis of salicylate and morphine concentrations, and venous blood samples (0.5 ml) are collected for analysis of salicylate and morphine serum concentrations and ovalbumin antibody titers. At the end of 3 weeks the animals are sacrificed for histological assessment of joint damage. […]

Data set [2] can be described thus: Synovial fluid and serum drug concentrations after single i.a. injection in arthritic rabbits. The following applies: rabbit, single 0.1 ml i.a. injection. How it is done: as §1, §2
At 3-day intervals over a 3-week period, joint swelling (circumference) is assessed, synovial fluid samples (25 μl) are collected for analysis of salicylate and morphine concentrations, and venous blood samples (0.5 ml) are collected for analysis of salicylate and morphine serum concentrations and ovalbumin antibody titers. At the end of 3 weeks the animals are sacrificed for histological assessment of joint damage.
At 3-day intervals over a 3-week period, joint swelling (circumference) is assessed, synovial fluid samples (25 μl) were collected for analysis of salicylate, lidocaine, and morphine concentrations, and venous blood samples (0.5 ml) are collected for analysis of salicylate, lidocaine, and morphine serum concentrations and ovalbumin antibody titers. At the end of 3 weeks the animals are sacrificed for histological assessment of joint damage.

[3] abbreviates: sampled at 3-day intervals over 3 weeks.

As for `C[C@H]1C[C@H]2[C@@H]3CCC4=CC(=O)C=C[C@]4(C)[C@@]3(F)[C@@H](O)C[C@]2(C)[C@@]1(O)C(=O)COP(=O)([O-])[O-].[Na+].[Na+]` [betamethasone, betamethasone sodium phosphate], in data set [1], the joint swelling entry is on record as “significantly reduced” and the “serum ovalbumin antibody titers” value is “significantly reduced”. For the same molecule, in data set [2] (after the early time points), the “betamethasone levels (synovial fluid and serum)” value was “undetectable”. In addition, in data set [2] (early time points), the “betamethasone levels in serum” value is reported as “low” and the “betamethasone levels in synovial fluid” value is “low”.
On to `CN1CC[C@]23c4c5ccc(O)c4O[C@H]2[C@@H](O)C=C[C@H]3[C@H]1C5.O=S(=O)(O)O` [morphine, morphine sulfate], for which, in data set [2] (setting [3]), the morphine serum levels entry is recorded as “undetectable” and the “morphine synovial fluid levels” value is reported as “undetectable”.
